In US10287305B2, “Substituted piperidine compound and use thereof” (Takeda Pharmaceutical Company Limited, priority 2016, dated 2019):

Target: human orexin type 2 receptor (hOX2R) (Homo sapiens (Human), UniProt O43614)
Assay: Measurement of orexin type 2 receptor agonist activity (Experimental Example 2-1, FLIPR TETRA, intracellular Ca2+);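 for Emax: Buffer-only well is 0% and 10 nM human orexin B is 100%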
Format: cell-based
Conditions: CHO dhfr- cells expressing hOX2R; for EC50: agonist activity, 10 nM human orexin B = 100%; for Emax at 30 µM: value at 30 uM concentration, orexin B as full agonist = 100%
Source text: To obtain a cell clone stably expressing human orexin type 2 receptor, human orexin type 2 receptor cDNA was inserted into pcDNA3.1(+) plasmid vector (Invitrogen), and a plasmid DNA for expression of human orexin type 2 receptor (pcDNA3.1(+)/hOX2R) was cloned. The plasmid DNA was introduced into CHO-dhfr cell by an electroporation method, and human orexin type 2 receptor expressing clone cells were obtained by limiting dilution method by using G418 drug resistance as a selection marker.
Chinese hamster ovary (CHO) dhfr-cells forcibly expressing human orexin type 2 receptor (hOX2R) were seeded in each well of Black clear bottom plate (384 wells) (Becton, Dickinson and Company) by 10,000 cells, and cultured for 16 hr in an MEM-alpha (Nikken-Bio Co., Ltd.) medium containing 100 U/ml penicillin, 100 μg/ml streptomycin, […] G418 (all above Invitrogen), and 10% fetal calf serum (Thermo), under the conditions of 37° C., 5% CO2. […] A test compound was dissolved in dimethyl sulfoxide to 10 mM, and then diluted with assay buffer 2 (20 mM HEPES, Hanks' balanced salt solution (Invitrogen), 0.1% bovine serum albumin). For the reaction, a test compound solution (10 μL) was added using Fluorescent Imaging Plate Reader TETRA (FLIPR TETRA; manufactured by Molecular Devices), a fluorescence value (excitation wavelength 488 nm, measurement wavelength 570 nm) of each well was measured every one second for 1 min, and the agonist activity was determined using the area of the fluorescence value as an indicator of intracellular Ca^2+ concentration.

Chain of human orexin type 2 receptor (hOX2R) (O43614 whole entry): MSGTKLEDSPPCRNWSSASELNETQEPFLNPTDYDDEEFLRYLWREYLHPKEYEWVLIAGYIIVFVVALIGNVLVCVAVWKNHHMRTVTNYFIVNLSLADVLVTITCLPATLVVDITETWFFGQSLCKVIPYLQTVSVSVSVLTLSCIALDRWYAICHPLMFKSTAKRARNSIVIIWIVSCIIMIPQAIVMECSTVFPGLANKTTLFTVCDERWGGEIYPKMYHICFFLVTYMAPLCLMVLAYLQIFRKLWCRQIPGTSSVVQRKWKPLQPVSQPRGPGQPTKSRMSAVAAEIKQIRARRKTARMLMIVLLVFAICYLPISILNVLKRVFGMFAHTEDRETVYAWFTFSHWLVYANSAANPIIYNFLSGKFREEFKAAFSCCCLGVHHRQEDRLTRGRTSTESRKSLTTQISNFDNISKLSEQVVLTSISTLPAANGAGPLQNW

SMILES: CCCC(=O)N1CCC[C@H](NS(C)(=O)=O)[C@@H]1CO[C@H]1CC[C@@H](C(C)C)CC1 (relative stereo) [Example 35, N-(cis-1-butyryl-2-(((cis-4-isopropylcyclohexyl)oxy)methyl)piperidin-3-yl)methanesulfonamide]
- EC50: 0.093 µM
- Emax at 30 µM: 99%

SMILES: CC(C)[C@H]1CC[C@@H](OC[C@H]2[C@@H](NS(C)(=O)=O)CCCN2S(C)(=O)=O)CC1 (relative stereo) [Example 36, N-(cis-2-(((cis-4-isopropylcyclohexyl)oxy)methyl)-1-(methylsulfonyl)piperidin-3-yl)methanesulfonamide]
- Emax at 30 µM: 74%

SMILES: CCS(=O)(=O)N[C@H]1CCCN(C(=O)Nc2ccccc2)[C@H]1CO[C@H]1CC[C@@H](C)CC1 (relative stereo) [Example 37, cis-3-((ethylsulfonyl)amino)-2-(((cis-4-methylcyclohexyl)oxy)methyl)-N-phenylpiperidine-1-carboxamide]
- EC50: 0.88 µM
- Emax at 30 µM: 97%

SMILES: CC(C)[C@H]1CC[C@@H](OC[C@H]2[C@@H](NS(C)(=O)=O)CCCN2C(=O)N2CCCC2)CC1 (relative stereo) [Example 39, N-(cis-2-(((cis-4-isopropylcyclohexyl)oxy)methyl)-1-(pyrrolidin-1-ylcarbonyl)piperidin-3-yl)methanesulfonamide]
- EC50: 0.94 µM
- Emax at 30 µM: 93%

SMILES: CC(C)[C@H]1CC[C@@H](OC[C@H]2[C@@H](NS(C)(=O)=O)CCCN2C(=O)N(C)C)CC1 (relative stereo) [Example 40, cis-2-(((cis-4-isopropylcyclohexyl)oxy)methyl)-N,N-dimethyl-3-((methylsulfonyl)amino)piperidine-1-carboxamide]
- EC50: 0.72 µM
- Emax at 30 µM: 91%

SMILES: CCOC(=O)N1CCC[C@H](NS(C)(=O)=O)[C@@H]1CO[C@H]1CC[C@@H](C(C)C)CC1 (relative stereo) [Example 42, ethyl cis-2-(((cis-4-isopropylcyclohexyl)oxy)methyl)-3-((methylsulfonyl)amino)piperidine-1-carboxylate]
- Emax at 30 µM: 97%

SMILES: CC(C)[C@H]1CC[C@@H](OC[C@H]2[C@@H](NS(C)(=O)=O)CCCN2C(=O)Oc2ccccc2)CC1 (relative stereo) [Example 43, phenyl cis-2-(((cis-4-isopropylcyclohexyl)oxy)methyl)-3-((methylsulfonyl)amino)piperidine-1-carboxylate]
- EC50: 1.1 µM
- Emax at 30 µM: 93%

SMILES: CC(C)[C@H]1CC[C@@H](OC[C@H]2[C@@H](NS(C)(=O)=O)CCCN2C(=O)COc2ccccc2)CC1 (relative stereo) [Example 44, N-(cis-2-(((cis-4-isopropylcyclohexyl)oxy)methyl)-1-(phenoxyacetyl)piperidin-3-yl)methanesulfonamide]
- EC50: 1.3 µM
- Emax at 30 µM: 96%

SMILES: COCC(=O)N1CCC[C@H](NS(C)(=O)=O)[C@@H]1CO[C@H]1CC[C@@H](C(C)C)CC1 (relative stereo) [Example 45, N-(cis-2-(((cis-4-isopropylcyclohexyl)oxy)methyl)-1-(methoxyacetyl)piperidin-3-yl)methanesulfonamide]
- EC50: 0.33 µM
- Emax at 30 µM: 100%

SMILES: CC(=O)OCC(=O)N1CCC[C@H](NS(C)(=O)=O)[C@@H]1CO[C@H]1CC[C@@H](C(C)C)CC1 (relative stereo) [Example 47, 2-(cis-2-(((cis-4-isopropylcyclohexyl)oxy)methyl)-3-((methylsulfonyl)amino)piperidin-1-yl)-2-oxoethyl acetate]
- Emax at 30 µM: 101%

SMILES: CC(C)[C@H]1CC[C@@H](OC[C@H]2[C@@H](NS(C)(=O)=O)CCCN2C(=O)C(C)(C)C)CC1 (relative stereo) [Example 53, N-(cis-1-(2,2-dimethylpropanoyl)-2-(((cis-4-isopropylcyclohexyl)oxy)methyl)piperidin-3-yl)methanesulfonamide]
- EC50: 0.98 µM
- Emax at 30 µM: 96%

SMILES: CC(C)[C@H]1CC[C@@H](OC[C@H]2[C@@H](NS(C)(=O)=O)CCCN2C(=O)CCc2ccccc2)CC1 (relative stereo) [Example 54, N-(cis-2-(((cis-4-isopropylcyclohexyl)oxy)methyl)-1-(3-phenylpropanoyl)piperidin-3-yl)methanesulfonamide]
- EC50: 4.1 µM
- Emax at 30 µM: 88%

SMILES: COC(=O)CCC(=O)N1CCC[C@H](NS(C)(=O)=O)[C@@H]1CO[C@H]1CC[C@@H](C(C)C)CC1 (relative stereo) [Example 55, methyl 4-(cis-2-(((cis-4-isopropylcyclohexyl)oxy)methyl)-3-((methylsulfonyl)amino)piperidin-1-yl)-4-oxobutanoate]
- EC50: 0.14 µM
- Emax at 30 µM: 97%

SMILES: CC(C)[C@H]1CC[C@@H](OC[C@H]2[C@@H](NS(C)(=O)=O)CCCN2C(=O)C2CCOCC2)CC1 (relative stereo) [Example 60, N-(cis-2-(((cis-4-isopropylcyclohexyl)oxy)methyl)-1-(tetrahydro-2H-pyran-4-ylcarbonyl)piperidin-3-yl)methanesulfonamide]
- EC50: 0.14 µM
- Emax at 30 µM: 101%

SMILES: CC(C)[C@H]1CC[C@@H](OC[C@H]2[C@@H](NS(C)(=O)=O)CCCN2S(=O)(=O)C2CC2)CC1 (relative stereo) [Example 62, N-(cis-1-(cyclopropylsulfonyl)-2-(((cis-4-isopropylcyclohexyl)oxy)methyl)piperidin-3-yl)methanesulfonamide]
- EC50: 2.3 µM
- Emax at 30 µM: 93%

SMILES: Cc1nc(S(=O)(=O)N2CCC[C@H](NS(C)(=O)=O)[C@@H]2CO[C@H]2CC[C@@H](C(C)C)CC2)cn1C (relative stereo) [Example 65, N-(cis-1-((1,2-dimethyl-1H-imidazol-4-yl)sulfonyl)-2-(((cis-4-isopropylcyclohexyl)oxy)methyl)piperidin-3-yl)methanesulfonamide]
- EC50: 1.3 µM
- Emax at 30 µM: 95%

SMILES: CC(C)[C@H]1CC[C@@H](OC[C@H]2[C@@H](NS(C)(=O)=O)CCCN2S(=O)(=O)c2cccnc2)CC1 (relative stereo) [Example 66, N-(cis-2-(((cis-4-isopropylcyclohexyl)oxy)methyl)-1-(pyridin-3-ylsulfonyl)piperidin-3-yl)methanesulfonamide]
- EC50: 3.8 µM
- Emax at 30 µM: 87%

SMILES: CC(C)[C@H]1CC[C@@H](OC[C@H]2[C@@H](NS(C)(=O)=O)CCCN2S(=O)(=O)c2cnn(C)c2)CC1 (relative stereo) [Example 67, N-(cis-2-(((cis-4-isopropylcyclohexyl)oxy)methyl)-1-((1-methyl-1H-pyrazol-4-yl)sulfonyl)piperidin-3-yl)methanesulfonamide]
- Emax at 30 µM: 93%

SMILES: CC(C)[C@H]1CC[C@@H](OC[C@H]2[C@@H](NS(C)(=O)=O)CCCN2C(=O)CCO)CC1 (relative stereo) [Example 72, N-(cis-1-(3-hydroxypropanoyl)-2-(((cis-4-isopropylcyclohexyl)oxy)methyl)piperidin-3-yl)methanesulfonamide]
- EC50: 0.089 µM
- Emax at 30 µM: 96%

SMILES: CC(C)[C@H]1CC[C@@H](OC[C@H]2[C@@H](NS(C)(=O)=O)CCCN2C(=O)CC(C)(C)O)CC1 (relative stereo) [Example 73, N-(cis-1-(3-hydroxy-3-methylbutanoyl)-2-(((cis-4-isopropylcyclohexyl)oxy)methyl)piperidin-3-yl)methanesulfonamide]
- EC50: 0.56 µM
- Emax at 30 µM: 92%
